Source: patent publication US11752120B2, “Use of succinic acid in increasing sensitivity of bacteria to antibiotics” (SUN YAT-SEN UNIVERSITY, priority 2018, dated 2023)
Counter-ions that a name gives are not always drawn.

Tests used:
[1] = system: clinical Escherichia coli YT1-30; test: Minimum inhibitory concentration (MIC), NCCLS method, 30 clinical strains; assay type: cell-based; design: Minimum inhibitory concentration (MIC): unit not given here
Description: (§1) Escherichia coli (E. coli) are one of the most common bacteria in the clinic. 30 strains of E. coli obtained from the clinic were named YT1-30. The minimum inhibitory concentrations (MIC) of 8 antibiotics against these 30 clinically obtained E. coli was detected according to the NCCLS method, and E. coli K12 was used as a control.

[2] = system: E. coli K12; test: Minimum inhibitory concentration (MIC), NCCLS method, control strain; assay type: cell-based, Escherichia coli; conditions: no unit in table, MIC in μg/mL
Description: as §1

Measured: Minimum inhibitory concentration (MIC)

CCC[C@@H]1C[C@@H](C(=O)N[C@@H]([C@H]2O[C@H](SC)[C@H](O)[C@@H](O)[C@H]2O)[C@H](C)Cl)N(C)C1 [Clindamycin hydrochloride]
1562.5: [1]; strain YT4 | [1]; strain YT6 | [1]; strain YT9 | [1]; strain YT28
390.625: [1]; strain YT1 | [1]; strain YT2 | [1]; strain YT3 | [1]; strain YT18 | [1]; strain YT19 | [1]; strain YT20 | [1]; strain YT21 | [1]; strain YT22 | [1]; strain YT23 | [1]; strain YT24 | [1]; strain YT25 | [1]; strain YT26 | [1]; strain YT27 | [1]; strain YT29 | [1]; strain YT30
25000: [1]; strain YT11 | [1]; strain YT12 | [1]; strain YT13 | [1]; strain YT14 | [1]; strain YT15 | [1]; strain YT16 | [1]; strain YT17
6250: [1]; strain YT5 | [1]; strain YT7 | [1]; strain YT8 | [1]; strain YT10
24.414: [2]

CC[C@H]1OC(=O)[C@H](C)[C@@H](O[C@H]2C[C@@](C)(OC)[C@@H](O)[C@H](C)O2)[C@H](C)[C@@H](O[C@@H]2O[C@H](C)C[C@H](N(C)C)[C@H]2O)[C@](C)(O)C[C@@H](C)/C(=N\OCOCCOC)[C@H](C)[C@@H](O)[C@]1(C)O [Roxithromycin]
9.765: [2]
156.25: [1]; strain YT4 | [1]; strain YT30
39.0625: [1]; strain YT1
2500: [1]; strain YT14 | [1]; strain YT15 | [1]; strain YT28
625: [1]; strain YT2 | [1]; strain YT3 | [1]; strain YT5 | [1]; strain YT6 | [1]; strain YT7 | [1]; strain YT8 | [1]; strain YT9 | [1]; strain YT10 | [1]; strain YT11 | [1]; strain YT12 | [1]; strain YT13 | [1]; strain YT16 | [1]; strain YT17 | [1]; strain YT18 | [1]; strain YT19 | [1]; strain YT20 | [1]; strain YT21 | [1]; strain YT22 | [1]; strain YT23 | [1]; strain YT24 | [1]; strain YT25 | [1]; strain YT26 | [1]; strain YT27 | [1]; strain YT29

CN(C)[C@@H]1C(O)=C(C(N)=O)C(=O)[C@@]2(O)C(O)=C3C(=O)c4c(O)cccc4[C@@](C)(O)[C@H]3C[C@@H]12 [Tetracycline]
6.1: [1]; strain YT1
390.625: [1]; strain YT4 | [1]; strain YT5 | [1]; strain YT28 | [1]; strain YT29 | [1]; strain YT30
24.414: [1]; strain YT2
1.526: [2]
97.656: [1]; strain YT3 | [1]; strain YT6 | [1]; strain YT7 | [1]; strain YT8 | [1]; strain YT9 | [1]; strain YT10 | [1]; strain YT11 | [1]; strain YT26 | [1]; strain YT27
6.103: [1]; strain YT25
1562.5: [1]; strain YT18 | [1]; strain YT19 | [1]; strain YT20 | [1]; strain YT21 | [1]; strain YT22 | [1]; strain YT23 | [1]; strain YT24
6250: [1]; strain YT12 | [1]; strain YT13 | [1]; strain YT14 | [1]; strain YT15 | [1]; strain YT16 | [1]; strain YT17
